Laboratory results as given in publication PMC3480206 (Future microbiology, 2012).
Converted amounts (≈) assume the structure as drawn. “Also recorded” adds a separate entry of the source. Where two headings read alike, the source gives them in different places.

Columns and labels:
[1] = tested on: Helicobacter pylori clinical isolates; test: MIC and time-kill on Helicobacter pylori; type: cell-based
Mtb inside macrophages [2] = conditions: cited from earlier work
Mtb [3] = test: Broth microdilution MIC against Mtb; type: cell-based, Mycobacterium tuberculosis
[4] = in vivo
[5] = In vivo pairwise drug-drug interaction studies with first-line drugs; conditions: pairwise studies of SQ109 with INH, RIF or streptomycin in mice or rats
Haemophilus influenzae = test: MIC on Haemophilus influenzae; type: cell-based
[6] = Phase Ic, multiple daily 300 mg doses
[7] = Micronucleus assay in rats; conditions: rat, in vivo
CYP450 2D6 and 2C19 = conditions: cited from earlier work
[8] = tested on: Mycobacterium tuberculosis H37Rv; conditions: mouse, in vivo; cited from earlier work
[9] = Neurological safety assessment, beagle dogs; type: in vivo; conditions: 90-day oral dosing at 100, 300 and 1000 mg/m^2/day
[10] = IND-directed repeat-dose toxicology studies
[11] = rat, in vivo; cited from earlier work
Mtb [12] = test: Rapid, high-dose model of TB infection; type: in vivo, mice; conditions: murine model of acute infection
[13] = tested on: Mtb gene clusters GC82 and GC120, iniBAC operon; conditions: cited from earlier work
[14] = Phase Ib, multiple daily doses; type: in vivo, healthy humans
Enterococci spp. = test: MIC on Enterococci spp.; type: cell-based
[15] = tested on: Mycobacteria avium, marinum, chelonae and abscessus; test: MIC on other pathogenic Mycobacteria; type: cell-based
[16] = PK evaluation on coadministration with second-line drugs
Mtb inside macrophages [17] = test: Intracellular killing in Mtb-infected macrophages; type: cell-based, Mycobacterium tuberculosis; conditions: SQ109 with CFZ; Reddy V, Unpublished Data
Mtb [18] = conditions: cited from earlier work
Cryptococcus neoformans = test: MIC on Cryptococcus neoformans; type: cell-based
Aspergillus fumigatus = test: MIC on Aspergillus fumigatus; type: cell-based
Clostridium difficile = test: MIC on Clostridium difficile; type: cell-based; conditions: Clostridioides difficile
[19] = tested on: Mycobacteria bovis, M. bovis BCG and Mycobacteria fortuitum; type: cell-based
[20] = Pulmonary safety testing, beagle dogs; type: in vivo; conditions: single oral dosing at 75, 140 and 300 mg/m^2
[21] = human, in vivo
[22] = Phase Ia, escalating single dose; conditions: for mean maximum concentration: fasting human subjects
[23] = rats; cited from earlier work
[24] = mice; cited from earlier work
Candida spp. = test: MIC on Candida spp.; type: cell-based
[25] = tested on: Mycobacterium tuberculosis H37Rv; conditions: cited from earlier work
CYP3A4 = conditions: cited from earlier work
[26] = tested on: Mycobacterium tuberculosis H37Rv; test: BACTEC MIC; type: cell-based; conditions: ATCC27294|H37RV
[27] = tested on: Mycobacterium tuberculosis H37Rv; test: In vitro drug interaction, checkerboard titration by 96-well microdilution; type: cell-based
Streptococcus pneumoniae = test: MIC on Streptococcus pneumoniae; type: cell-based
Mtb [28] = conditions: 10 mg/kg, cited from earlier work
Mtb [29] = conditions: cited from earlier work; remark: listed apart in the source
[30] = tested on: Salmonella–Escherichia coli; test: Salmonella–Escherichia coli/microsome plate incorporation assay; type: cell-based; conditions: In vitro mutagenicity studies
[31] = Cardiovascular safety, beagle dogs
Neisseria gonorrhoeae = test: MIC and MBC on Neisseria gonorrhoeae; type: cell-based
[32] = Neurological safety assessment, rats; type: in vivo; conditions: 90-day oral dosing at 30, 120 and 240 mg/m^2/day
[33] = 300 mg with high-fat, high-calorie meal
[34] = single oral dosing at 75, 140 and 300 mg/m^2

CC(C)=CCC/C(C)=C/CNCCNC1C2CC3CC(C2)CC1C3 (stereo not drawn) [SQ109, N-geranyl-N′-(2-adamantyl)ethane-1,2-diamine]
bactericidal or bacteriostatic ([1]; H. pylori): bactericidal
time–kill assays versus first-line drugs ([1]; H. pylori): better than amoxicillin and metronidazole
MIC range ([1]; all H. pylori clinical isolates, manuscript in preparation): 2.5 to 15 µg/mL
time to kill intracellular Mtb in infected macrophage assay (Mtb inside macrophages [2]; SQ109 with sutezolid): improved synergistically
reduction of intracellular Mtb (Mtb inside macrophages [2]; at its MIC): 99%
killing of Mtb inside macrophages relative to INH and EMB (Mtb inside macrophages [2]): equivalent to INH and superior to EMB
MIC (Mtb [3]; Mycobacterium tuberculosis): 0.78 µg/mL (≈ 2.36 µM)
MIC range (Mtb [3]; overall range on Mtb): 0.2 to 0.78 µg/mL
Segment 1: effects on male and female gamete maturation, copulatory performance, fertilization, zygote development and embryo implantation [4]: No impact
Segment 2: effects on pregnant female and development of embryo and fetus from implantation [4]: No impact
in vivo drug–drug interactions or PK changes [5]: no in vivo adverse drug–drug interactions or PK changes
MIC (Haemophilus influenzae): 1 to 32 µg/mL (≈ 3.03 to 96.8 µM)
subjects with lung concentrations above the MIC for Mtb ([6]; 12 h after dosing, expected from plasma concentration–time profile): approximately 50%
serious adverse events ([6]; Phase Ic, 300 mg daily for 14 days): no SAEs
time to steady-state conditions ([6]; daily administration of 300 mg): ≤ 10 days
lung concentration relative to SQ109 MIC ([6]; steady state, once-daily 300 mg, from preclinical plasma/lung relationship): approximately 5.8 fold
Micronucleus assay in rats [7]: Negative
human CYP450 enzymes producing the four major metabolites (CYP450 2D6 and 2C19): CYP450 2D6 and 2C19
activity in model of chronic TB [8]: better activity than EMB at 100 mg/kg
Functional observational battery parameters [9]: No change
toxicities and adverse events ([10]; 40 mg/kg/day, three animal species, except emesis in dogs): no cardiovascular, hepatic, hematologic, neurological or ocular toxicities
NOAEL ([10]; dog, rat, nonhuman primate, in vivo): 30 to 40 mg/kg/day
phospholipidosis ([10]; in vivo): did cause phospholipidosis
Mouse lymphoma mutation assay (Mouse lymphoma): Negative
bioavailability of SQ109 [11]: 21.4%
efficacious dose for treatment of TB (Mtb [12]): 10 mg/kg/day
Activity on Mtb gene clusters GC82 and GC120 [13]: Downregulates
transcription of the iniBAC operon [13]: induces
tolerability ([14]; 75 mg daily for 14 days or 150 mg daily for 5 days then days 9 and 14): well tolerated
serious adverse events ([14]; Phase Ib): no SAEs
MIC (Enterococci spp.): 8 to 32 µg/mL (≈ 24.2 to 96.8 µM)
MIC [15]: 4 to 16 µg/mL (≈ 12.1 to 48.4 µM)
exposure of mice to SQ109 ([16]; in the presence of CS and KAN): slightly decreased
pharmacology profile on coadministration ([16]; mice, SQ109 and MXF coadministered): not affected
interaction in macrophage intracellular killing assay (Mtb inside macrophages [17]): synergy
Effect on acid-fastness of Mtb (Mtb [18]): No effect
MIC (Cryptococcus neoformans): 0.25 to 4 µg/mL (≈ 0.756 to 12.1 µM)
MIC (Aspergillus fumigatus): 8 µg/mL (≈ 24.2 µM)
MIC (Clostridium difficile): 8 to 16 µg/mL (≈ 24.2 to 48.4 µM)
activity against other Mycobacteria [19]: active
Minute volume [20]: No change
Respiratory rate [20]: No change
Tidal volume [20]: No change
safety and tolerability [21]: safe and well-tolerated
food effect on half-life [22, 33]: increased
food effect on maximum serum concentration [22, 33]: decreased
mean maximum concentration ([22]; 10-mg oral dose): 0.729 ng/mL
mean maximum concentration ([22]; 300-mg oral dose): 20.2 ng/mL
serious adverse events ([22]; Phase Ia, single oral doses 5-300 mg): no serious AEs
half-life ([22]; human, serum, oral, 300 mg): 61.1 h
tissue distribution [23]: highest concentrations of SQ109 in liver
concentration in lung and spleen compared with plasma [24]: at least 45 fold
MIC (Candida spp.): 1 to 8 µg/mL (≈ 3.03 to 24.2 µM)
improvement of SQ109 activity [25]: fourfold
in vitro interaction [25]: synergistic; also recorded: additive
activation of CYP450 3A4 (CYP3A4): not activated
metabolism by CYP450 3A4 (CYP3A4): nor is it metabolized
MIC [26]: ≤ 0.2 µg/mL
MIC ([27]; Mycobacterium tuberculosis, H37RV, read-out: MIC Alone): 0.5 µg/mL
in vitro interaction ([27]; SQ109 with AMK, Unpublished Data): synergy
in vitro interaction ([27]; SQ109 with CFZ, Reddy V, Unpublished Data): synergy
in vitro interaction ([27]; SQ109 with CM, Unpublished Data): synergy
in vitro interaction ([27]; SQ109 with CS, Unpublished Data): additive
in vitro interaction ([27]; SQ109 with ETA, Unpublished Data): additive
in vitro interaction ([27]; SQ109 with KAN, Unpublished Data): additive
in vitro interaction ([27]; SQ109 with MXF, Unpublished Data): synergy
in vitro interaction ([27]; SQ109 with all the rifamycins, including rifapentine and rifabutin): profound synergy
in vitro interaction ([27]; SQ109 with para-aminosalicylic acid, Unpublished Data): additive
MIC Combination ([27]; checkerboard SQ109 + CFZ, Mtb H37Rv): 0.125 µg/mL
MIC (Streptococcus pneumoniae): 2 to 4 µg/mL (≈ 6.05 to 12.1 µM)
weight loss of infected mice (Mtb [28]; versus untreated infected mice): significantly reduced weight loss
efficacy in screening and chronic model of TB (Mtb [28]; mice): efficacious
incorporation into trehalose monomyclate (TMM) (Mtb [29]): increased
incorporation of mycolic acids into the cell wall (Mtb [29]; trehalose dimycolate and arabinogalactan-bound mycolates): decreased
Salmonella–Escherichia coli/microsome plate incorporation assay [30]: Negative
Blood pressure ([31]; at 75 and 140 mg/m^2): No change
Body weights [31, 34]: No change
Clinical observations [31, 34]: No deaths
Clinical pathology: hematology or clinical chemistry [31, 34]: No change
ECG waveforms (rhythms and morphology) [31, 34]: No change
Heart rate/ECG data [31, 34]: No change
MBC (Neisseria gonorrhoeae): 0.038 µg/mL (≈ 0.115 µM)
MIC (Neisseria gonorrhoeae): 0.038 µg/mL (≈ 0.115 µM)
Functional observational battery parameters [32]: No change
